# Source: US20210386069A1 (priority 2018, published 2021)
# Experiment: log P by HPLC on a reversed-phase column (C 18), EEC Directive 79/831 Annex V.A8
# Assay type: physicochemical
# Conditions: HPLC reversed-phase C 18, 40° C., 0.1% aqueous formic acid and acetonitrile, linear gradient 10% to 95% acetonitrile
# Experimental: In table 1, the log P values were determined in accordance with EEC Directive 79/831 Annex V.A8 by HPLC (High Performance Liquid Chromatography) on a reversed-phase column (C 18), using the method described below:
# temperature: 40° C.; mobile phases: 0.1% aqueous formic acid and acetonitrile; linear gradient from 10% acetonitrile to 95% acetonitrile;
# If more than one Log P value is available within the same method, all the values are given and separated by “;”.
# Calibration was carried out using unbranched alkan-2-ones (comprising 3 to 16 carbon atoms) with known log P values (determination of the log P values by the retention times using linear interpolation between two successive alkanones). lambda-max-values were determined using UV-spectra from 200 nm to 400 nm and the peak values of the chromatographic signals.
row,Compound,logP
1,Cc1nc2c(F)c(F)ccc2cc1Nc1cccc(F)c1-c1ccnc(Cl)c1 [I.091],3.69
2,Cc1nc2c(F)c(F)ccc2cc1Nc1cccc(F)c1-c1ccc(Cl)nc1 [I.092],3.72
3,Cc1nc2c(F)c(F)ccc2cc1Nc1cccc(F)c1-c1ccncc1Cl [I.093],3.46
4,Cc1nc2c(F)c(F)ccc2cc1Nc1cccc(F)c1-c1cccnc1Cl [I.094],3.50
5,Cc1nc2c(F)c(F)ccc2cc1Nc1ccccc1-c1cc(Cl)cnc1F [I.095],4.01
6,Cc1nc2c(F)c(F)ccc2cc1Nc1ccccc1-c1ccnc(F)c1Cl [I.096],3.91
7,Cc1nc2c(F)c(F)ccc2cc1Nc1ccccc1-c1cc(F)cnc1Cl [I.097],3.81
8,Cc1nc2c(F)c(F)ccc2cc1Nc1ccccc1-c1cc(Cl)ncc1F [I.098],3.91
9,Cc1nc2c(F)c(F)ccc2cc1Nc1cccc(F)c1-c1cncc(Cl)c1 [I.099],3.60
10,Cc1nc2c(F)c(F)ccc2cc1Nc1cccc(F)c1-c1cc(F)nc(F)c1 [I.100],3.98
11,Cc1nc2c(F)c(F)ccc2cc1Nc1cccc(F)c1-c1ccnc(F)c1F [I.101],3.81
12,Cc1nc2c(F)c(F)ccc2cc1Nc1cccc(F)c1-c1ccc(F)nc1F [I.103],3.84
13,Cc1nc2c(F)c(F)ccc2cc1Nc1cccc(F)c1-c1cccnc1C1CC1 [I.105],3.25
14,Cc1nc2c(F)c(F)ccc2cc1Nc1cccc(F)c1-c1ccncc1C1CC1 [I.106],2.49
15,Cc1nc2c(F)c(F)ccc2cc1Nc1ccccc1-c1ccc(OC(C)C)nc1 [I.107],4.43
16,COc1ccc(-c2ccccc2Nc2cc3ccc(F)c(F)c3nc2C)c(OC)n1 [I.108],4.62
17,CCCc1ncccc1-c1c(F)cccc1Nc1cc2ccc(F)c(F)c2nc1C [I.109],2.62
18,CCCc1cnccc1-c1c(F)cccc1Nc1cc2ccc(F)c(F)c2nc1C [I.110],2.89
19,CCCc1ccncc1-c1c(F)cccc1Nc1cc2ccc(F)c(F)c2nc1C [I.111],2.75
20,CCOc1ccc(-c2c(F)cccc2Nc2cc3ccc(F)c(F)c3nc2C)cn1 [I.112],4.09
21,CCOc1ncccc1-c1c(F)cccc1Nc1cc2ccc(F)c(F)c2nc1C [I.113],4.13
22,CSc1ccc(-c2c(F)cccc2Nc2cc3ccc(F)c(F)c3nc2C)cn1 [I.114],3.91
23,CSc1ncccc1-c1c(F)cccc1Nc1cc2ccc(F)c(F)c2nc1C [I.115],3.98

row,Compound,logP
1,COc1nccc(-c2ccccc2Nc2cc3ccc(F)c(F)c3nc2C)c1Cl [I.116],4.09
2,COc1c(-c2c(F)cccc2Nc2cc3ccc(F)c(F)c3nc2C)ccnc1F [I.117],3.75
3,Cc1cnc(Cl)c(-c2c(F)cccc2Nc2cc3ccc(F)c(F)c3nc2C)c1 [I.118],3.75
4,Cc1cc(-c2c(F)cccc2Nc2cc3ccc(F)c(F)c3nc2C)cnc1Cl [I.119],3.98
5,Cc1nc2c(F)c(F)ccc2cc1Nc1cccc(F)c1-c1ccc(Cl)nc1C [I.120],4.01
6,Cc1cc(Cl)ncc1-c1c(F)cccc1Nc1cc2ccc(F)c(F)c2nc1C [I.121],4.01
7,Cc1nc2c(F)c(F)ccc2cc1Nc1ccccc1-c1cncc(C(F)(F)F)c1 [I.122],3.65
8,Cc1nc2c(F)c(F)ccc2cc1Nc1ccccc1-c1ccc(C(F)(F)F)nc1 [I.123],3.91
9,Cc1nc2c(F)c(F)ccc2cc1Nc1ccccc1-c1cc(Cl)cnc1Cl [I.124],4.13
10,Cc1nc2c(F)c(F)ccc2cc1Nc1cccc(F)c1-c1cc(Cl)ncc1F [I.126],3.98
11,Cc1nc2c(F)c(F)ccc2cc1Nc1cccc(F)c1-c1cc(F)cnc1Cl [I.127],3.87
12,Cc1nc2c(F)c(F)ccc2cc1Nc1cccc(F)c1-c1cc(Cl)cnc1F [I.128],4.05
13,Cc1nc2c(F)c(F)ccc2cc1Nc1cccc(F)c1-c1ccnc(F)c1Cl [I.129],3.98
14,Cc1nc2c(F)c(F)ccc2cc1Nc1cccc(F)c1-c1ccc(OC(C)C)nc1 [I.130],4.47
15,COc1ccc(-c2c(F)cccc2Nc2cc3ccc(F)c(F)c3nc2C)c(OC)n1 [I.131],4.43
16,COc1nccc(-c2c(F)cccc2Nc2cc3ccc(F)c(F)c3nc2C)c1Cl [I.132],4.09
17,Cc1nc2c(F)c(F)ccc2cc1Nc1cccc(F)c1-c1cncc(C(F)(F)F)c1 [I.133],3.75
18,Cc1nc2c(F)c(F)ccc2cc1Nc1cccc(F)c1-c1ccc(C(F)(F)F)nc1 [I.134],3.94
19,COc1cc(-c2ccccc2Nc2cc3ccc(F)c(F)c3nc2C)c(Br)cn1 [I.135],4.36
20,Cc1nc2c(F)c(F)ccc2cc1Nc1cccc(F)c1-c1cc(F)cnc1F [I.136],3.71
21,Cc1nc2c(F)c(F)ccc2cc1Cc1cccnc1-c1ccnc(F)c1 [I.137],2.52
22,Fc1cc(-c2cscc2Cc2cnc3c(F)cccc3c2)ccn1 [I.139],3.11

# Same assay, conditions: reversed-phase HPLC column (C 18); preparation examples; log P as defined in table 1 (HPLC, 0.1% aqueous formic acid/acetonitrile)
row,Compound,chromatographic logP
1,"Cc1nc2c(F)c(F)ccc2cc1Nc1cccc(F)c1-c1cnccc1C1CC1 [I.104, N-[2-(4-cyclopropylpyridin-3-yl)-3-fluorophenyl]-7,8-difluoro-2-methylquinolin-3-amine]",2.12
2,"Cc1nc2c(F)c(F)ccc2cc1Cc1cscc1-c1ccnc(F)c1 [I.138, 7,8-difluoro-3-{[4-(2-fluoropyridin-4-yl)-3-thienyl]methyl}-2-methylquinoline]",3.64
3,"Cc1nc2c(F)c(F)ccc2cc1Nc1cccc(F)c1Br [N-(2-bromo-3-fluorophenyl)-7,8-difluoro-2-methylquinolin-3-amine]",3.28
